These results are taken from patent EP0610032A1, “Acetanilide derivatives” (ZENECA LIMITED, priority 1993, dated 1994).

Assay [1] addresses T1, 5-LO (Homo sapiens, UniProt P09917).
T1 construct: incubating a test compound with heparinised human blood, prior to challenge with the calcium ionophore A23187; endogenous in cells; host or cells: heparinised human whole blood (blood cells)
T1 sequence (P09917 1-674): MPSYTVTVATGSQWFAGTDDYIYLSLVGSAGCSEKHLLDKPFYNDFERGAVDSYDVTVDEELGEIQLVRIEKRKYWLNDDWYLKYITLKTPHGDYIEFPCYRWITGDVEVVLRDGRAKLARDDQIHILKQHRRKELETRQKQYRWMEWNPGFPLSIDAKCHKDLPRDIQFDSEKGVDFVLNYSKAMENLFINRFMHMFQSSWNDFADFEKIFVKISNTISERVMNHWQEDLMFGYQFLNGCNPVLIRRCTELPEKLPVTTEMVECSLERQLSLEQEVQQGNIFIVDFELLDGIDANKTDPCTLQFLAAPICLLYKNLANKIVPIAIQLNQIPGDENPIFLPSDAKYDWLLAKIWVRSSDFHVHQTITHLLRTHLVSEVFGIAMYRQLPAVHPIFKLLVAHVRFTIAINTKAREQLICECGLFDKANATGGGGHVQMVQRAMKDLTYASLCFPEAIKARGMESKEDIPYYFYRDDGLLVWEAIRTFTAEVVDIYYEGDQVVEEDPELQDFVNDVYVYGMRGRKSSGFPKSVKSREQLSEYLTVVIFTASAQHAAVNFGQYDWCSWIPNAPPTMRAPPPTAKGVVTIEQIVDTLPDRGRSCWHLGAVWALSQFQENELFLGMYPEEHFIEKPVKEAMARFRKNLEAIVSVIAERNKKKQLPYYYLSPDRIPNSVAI
The assay is described as follows: Test a): in vitro heparinised human blood challenged with calcium ionophore A23187, radioimmunoassay of LTB₄. Format: cell-based. The note with it: A23187 challenge, read-out: IC₅₀ (LTB₄). An excerpt: As stated previously, the compounds of the formula I are inhibitors of the enzyme 5-LO. […] J. Pharmacol., 1985, 84, 34P) which involves the use of a protein-LTB₄ conjugate produced using the procedure of Young et alia (Prostaglandins, 1983, 26(4), 605-613). The effects of a test compound on the enzyme cyclooxygenase (which is involved in the alternative metabolic pathway for arachidonic acid and gives rise to prostaglandins, thromboxanes and related metabolites) may be measured at the same time using the specific radioimmunoassay for thromboxane B₂(TxB₂) described by Carey and Forder (see above). This test provides an indication of the effects of a test compound against 5-LO and also cyclooxygenase in the presence of blood cells and proteins. It permits the selectivity of the inhibitory effect on 5-LO or cyclooxygenase to be assessed. • b) An ex vivo assay system, which is a variation of test a) above, involving administration to a group of rats of a test compound (usually orally as the suspension produced when a solution of the test compound in dimethylsulphoxide is added to carboxymethylcellulose), blood collection, heparinisation, challenge with A23187 and radioimmunoassay of LTB₄ and TxB₂. […]

The target of assay [2] is T2, 5-LO (Rattus norvegicus, UniProt P12527).
T2 construct: liberation of LTB₄ induced by zymosan within an air pouch generated within the subcutaneous tissue of the back of male rats; from tissue; host or cells: subcutaneous air pouch of male rats (in vivo)
T2 sequence (P12527 1-673): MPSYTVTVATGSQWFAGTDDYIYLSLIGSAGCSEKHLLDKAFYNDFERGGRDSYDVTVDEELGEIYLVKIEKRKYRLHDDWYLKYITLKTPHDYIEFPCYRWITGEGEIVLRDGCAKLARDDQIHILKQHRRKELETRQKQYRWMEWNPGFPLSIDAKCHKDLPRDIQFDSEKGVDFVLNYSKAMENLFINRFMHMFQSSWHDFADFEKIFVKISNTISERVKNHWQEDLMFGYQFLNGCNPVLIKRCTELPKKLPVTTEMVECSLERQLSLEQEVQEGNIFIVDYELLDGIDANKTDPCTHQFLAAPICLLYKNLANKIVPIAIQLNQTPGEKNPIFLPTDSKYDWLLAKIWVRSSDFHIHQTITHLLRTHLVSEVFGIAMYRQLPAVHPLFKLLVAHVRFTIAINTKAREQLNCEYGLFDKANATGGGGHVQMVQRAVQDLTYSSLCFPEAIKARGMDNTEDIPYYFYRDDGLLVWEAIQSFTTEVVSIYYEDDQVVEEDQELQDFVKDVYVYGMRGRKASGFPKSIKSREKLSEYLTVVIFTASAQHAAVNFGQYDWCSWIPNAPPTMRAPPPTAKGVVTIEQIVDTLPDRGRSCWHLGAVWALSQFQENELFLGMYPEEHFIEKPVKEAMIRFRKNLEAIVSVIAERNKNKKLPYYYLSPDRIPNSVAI
The assay is described as follows: Test c): in vivo zymosan-induced LTB₄ liberation in subcutaneous air pouch of male rats. The note with it: oral, 3 hours, read-out: oral ED₅₀(LTB₄).
Experimental: This test provides an indication of the bioavailability of a test compound as an inhibitor of 5-LO or cyclooxygenase. • c) An in vivo system involving measuring the effects of a test compound administered orally against the liberation of LTB₄ induced by zymosan within an air pouch generated within the subcutaneous tissue of the back of male rats. The rats are anaesthetised and air pouches are formed by the injection of sterile air (20ml). A further injection of air (10ml) is similarly given after 3 days. At 6 days after the initial air injection the test compound is administered (usually orally as the suspension produced when a solution of the test compound in dimethylsulphoxide is added to hydroxypropylmethylcellulose), followed by the intrapouch injection of zymosan (1ml of a 1% suspension in physiological saline). After 3 hours the rats are killed, the air pouches are lavaged with physiological saline, and the specific radioimmunoassay described above is used to assay LTB₄ in the washings. This test provides an indication of inhibitory effects against 5-LO in an inflammatory milieu.

For `CC(=O)N(C)c1ccc(Sc2cc([C@@]3(C)COC(C)(C)O3)cs2)cc1` [Example 1, N-methyl-4'-{4-[(4S)-2,2,4-trimethyl-1,3-dioxolan-4-yl]thien-2-ylthio}acetanilide], the IC50 on 5-LO [1] was below 0.04 µM. Besides, the ED50 on 5-LO [2] is around 1.5 mg/kg. Consider `CC(=O)N(C)c1ccc(Sc2ncc([C@@]3(C)COC(C)(C)O3)s2)cc1` [Example 2, N-methyl-4'-{5-[(4R)-2,2,4-trimethyl-1,3-dioxolan-4-yl]thiazol-2-ylthio}acetanilide], for which the IC50 on 5-LO [1] amounted to 0.07 µM.
